Results on 5 molecules are retold here after patent US20250280696A1, “FORMULATIONS AND USES THEREOF IN OPTOELECTRONIC FIELD” (Zhejiang Brilliant Optoelectronic Technology Co.,Ltd., priority 2022, published 2025).

Type in all cases: physicochemical
Series [1] can be described thus: Absorption spectrum, emission spectrum and extinction coefficient in toluene solution. The conditions noted are these: for Molar extinction coefficient of the toluene solution: at maximum absorption peak. As for the experimental part: The extinction coefficients of the compounds and their absorption and emission spectrums in the solution were determined as follows: • 1. The compound with a certain amount of substance concentration in the toluene was prepared in a volumetric flask. • 2. The absorption spectrum of the solution was measured by using an ultraviolet-visible spectrophotometer (Puxi T9s) to obtain the absorption peak wavelength. • 3. The absorbance of the maximum absorption peak divided by the amount of substance concentration is the molar extinction coefficient of the compound. • 4. The emission spectrum of the solution was measured by using a fluorescent spectroscope (Hitachi, F-4700 FL Spectrophotometer) to obtain the emission peak wavelength.
(§1) The extinction coefficients of the compounds and their absorption and emission peaks in the solution and film are shown in Table 3.

The nature of series [2]: Absorption and emission spectrum in spin-coated film. The conditions noted are these: for Red shift of the spectrum in the film relative to the solution: film vs toluene solution. The protocol: The Absorption and emission spectrums of the compounds in the film were determined as follows: • 1. The compound with a certain concentration in the toluene was prepared. • 2. The prepared toluene solution was dropped onto a clean glass substrate. • 3. Spin-coating, and then heating at the 80° C. for 1 min. • 4. The absorption spectrum of the film was measured by using an ultraviolet-visible spectrophotometer (Puxi T9s) to obtain the absorption peak wavelength. • 5. The emission spectrum of the film was measured by using a fluorescent spectroscope (Hitachi, F-4700 FL Spectrophotometer) to obtain the emission peak wavelength.
as §1

Series [3] can be described thus: Solubility of compounds in toluene. Conditions: per 100 g toluene. As for the experimental part:
The solubility of the compounds in the toluene were determined as follows: • 1. 1000 mg toluene was placed in the transparent glass sample bottle. • 2. A certain mass of the compound was added into the toluene, and oscillated until completely dissolved. • 3. After the compound was completely dissolved, a certain mass of the compound was further added into the toluene, and oscillated. • 4. The above steps were repeated until the compound wasn't dissolved any more. • 5. The total mass of the compound added was recorded and the solubility was obtained by calculation.

Series [4] in a line: UV stability of compounds in toluene (absorbance decay, t80). Conditions: UV LEDs 365 nm & 255 nm, 12 cm, time until absorbance decayed to 80% of initial value. The protocol: The UV stability of the compounds were tested as follows:
The compound was dissolved in the toluene with a concentration of 1×10^5 mol/L. 3 mL solution was added to the cuvette with a lid and the lid was screwed on tightly, then the cuvette was placed in the ultraviolet-visible spectrophotometer to test the absorption spectrum, the absorbance of the maximum absorption peak was recorded as the initial value. The cuvette was placed at a distance of 12 cm from the UV LEDs (365 nm & 255 nm), irradiated for a period and tested its absorption spectrum, then continued to be irradiated after the test, and repeated until the absorbance decayed to 80% of its initial value, the time was recorded as t80.

In the case of `c1ccc(N(c2ccccc2)c2cc(N(c3ccccc3)c3ccccc3)c3ccc4c(N(c5ccccc5)c5ccccc5)cc(N(c5ccccc5)c5ccccc5)c5ccc2c3c54)cc1` [Compound 20], in series [1], the “Absorption peak of the toluene solution” value is listed as 465 nm, the “Emission peak of the toluene solution” value was found to be 488 nm and the “Molar extinction coefficient of the toluene solution” value (“Molar extinction coefficient” below) came to 23000 L/mol. For the same molecule, the “Red shift of the spectrum in the film relative to the solution” value in series [2] is given as “large red shift”. In addition, in series [2] (spin-coated film on glass), the “Absorption peak of the film” value came out at 482 nm and the “Emission peak of the film” value is reported as 561 nm. In addition, in series [3], the “Solubilities(/100 g toluene)” value is given as above 1.5 g. In addition, the “Times t80” value in series [4] was 188 min.
Take `CCCCCCCCc1ccc(-c2cc(C(C)C)ccc2N(c2cc(F)c(F)c(F)c2)c2cc(N(c3cc(F)c(F)c(F)c3)c3ccc(C(C)C)cc3-c3ccc(CCCCCCCC)cc3)c3ccc4c(N(c5cc(F)c(F)c(F)c5)c5ccc(C(C)C)cc5-c5ccc(CCCCCCCC)cc5)cc(N(c5cc(F)c(F)c(F)c5)c5ccc(C(C)C)cc5-c5ccc(CCCCCCCC)cc5)c5ccc2c3c54)cc1` [Compound 22]: the “Molar extinction coefficient” value in series [1] came out at 59000 L/mol. For the same molecule, the “Red shift of the spectrum in the film relative to the solution” value in series [2] is reported as “very small red shift”. Further, the “Emission peak of the film” value in series [2] (spin-coated film on glass) amounted to 490 nm. Also, the “Solubilities(/100 g toluene)” value in series [3] was above 15 g. In addition, in series [4], the “Times t80” value is on record as 377 min.
With `CC1CCC(C(C)C)C(Oc2ccc(-c3cc(C(C)C)ccc3N(c3cc(F)c(F)c(F)c3)c3cc(N(c4cc(F)c(F)c(F)c4)c4ccc(C(C)C)cc4-c4ccc(OC5CC(C)CCC5C(C)C)cc4)c4ccc5c(N(c6cc(F)c(F)c(F)c6)c6ccc(C(C)C)cc6-c6ccc(OC7CC(C)CCC7C(C)C)cc6)cc(N(c6cc(F)c(F)c(F)c6)c6ccc(C(C)C)cc6-c6ccc(OC7CC(C)CCC7C(C)C)cc6)c6ccc3c4c65)cc2)C1` (stereo not shown) [Compound 23], in series [1], the “Molar extinction coefficient” value worked out at 68000 L/mol. In addition, the “Red shift of the spectrum in the film relative to the solution” value in series [2] was “very small red shift”. Besides, in series [3], the “Solubilities(/100 g toluene)” value was above 10 g. Also, in series [4], the “Times t80” value was 405 min.
For `CCCCCCCCc1ccc(-c2cc(OC)ccc2N(c2cc(F)c(F)c(F)c2)c2cc(N(c3cc(F)c(F)c(F)c3)c3ccc(OC)cc3-c3ccc(CCCCCCCC)cc3)c3ccc4c(N(c5cc(F)c(F)c(F)c5)c5ccc(OC)cc5-c5ccc(CCCCCCCC)cc5)cc(N(c5cc(F)c(F)c(F)c5)c5ccc(OC)cc5-c5ccc(CCCCCCCC)cc5)c5ccc2c3c54)cc1` [Compound 24] the same measures were 70000 L/mol, “very small red shift”, above 10 g and 352 min.
On the same counts, the results for `CCCCCCCCc1ccc(N(c2ccc(C(C)C)cc2-c2cc(F)c(F)c(F)c2)c2cc(N(c3ccc(CCCCCCCC)cc3)c3ccc(C(C)C)cc3-c3cc(F)c(F)c(F)c3)c3ccc4c(N(c5ccc(CCCCCCCC)cc5)c5ccc(C(C)C)cc5-c5cc(F)c(F)c(F)c5)cc(N(c5ccc(CCCCCCCC)cc5)c5ccc(C(C)C)cc5-c5cc(F)c(F)c(F)c5)c5ccc2c3c54)cc1` [Compound 26] are 55000 L/mol, “very small red shift”, above 10 g and 486 min.
